# In patent US12398111B2, “Triazine compounds and pharmaceutical use thereof” (Japan Tobacco Inc., priority 2014, dated 2025):
# Molecular target: T1, human mPGES-1 (Homo sapiens, UniProt O14684)
# T1 construct: made in house; host or cells: FreeStyle CHO-S cells (Chinese hamster ovary), transient transfection with pcDNA3.1(+)/human mPGES-1; microsome fraction used
# T1 sequence (O14684 1-152): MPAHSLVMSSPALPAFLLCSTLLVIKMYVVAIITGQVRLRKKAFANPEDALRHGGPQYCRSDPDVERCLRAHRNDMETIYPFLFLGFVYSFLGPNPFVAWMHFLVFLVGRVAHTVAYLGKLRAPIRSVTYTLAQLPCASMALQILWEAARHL
# Experiment: Evaluation of human mPGES-1 enzyme inhibitory activity (PGE2 measured by HTRF, microsome fraction of CHO-S cells expressing human mPGES-1)
# Type: biochemical
# Conditions: IC50 value; microsome fraction of CHO-S cells expressing human mPGES-1, PGE2 by HTRF
# Summary of the method: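 Enzyme source: microsomes from CHO-S cells transfected with human mPGES-1 and cultured 48 hr, diluted to 5 μg/mL protein in reduced GSH (12.5 mmol/L KPB solution). Test articles were in 0.1 mol/L potassium phosphate pH 7.4, final DMSO 2% (v/v). PGE2 formed was quantified by HTRF.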
row,IC50,SMILES
1,61 nM,Cc1cccc(C)c1-c1nc(O)nc(-c2ccc(OCC3CCCC3)cc2)n1 [Example 2-50]
2,90 nM,Cc1cccc(C)c1-c1nc(O)nc(-c2ccc(OCC3CCC3)cc2)n1 [Example 2-51]
3,100 nM,CCOc1cc(-c2nc(O)nc(-c3c(C)cccc3C)n2)ccc1Cl [Example 2-52]
4,11 nM,Cc1ccccc1COc1cccc(Cl)c1-c1nc(O)nc(-c2ccc(C(F)(F)F)cc2)n1 [Example 2-53]
5,170 nM,CCc1cc(-c2nc(O)nc(-c3c(C)cccc3C)n2)ccc1Cl [Example 2-54]
6,10 nM,Cc1cccc(COc2cccc(Cl)c2-c2nc(O)nc(-c3ccc(C(F)(F)F)cc3)n2)c1 [Example 2-55]
7,18 nM,Cc1ccc(COc2cccc(Cl)c2-c2nc(O)nc(-c3ccc(C(F)(F)F)cc3)n2)cc1 [Example 2-56]
8,25 nM,Cc1cccc(C)c1-c1nc(O)nc(-c2ccc(OCC3CCCCCC3)cc2)n1 [Example 2-57]
9,145 nM,Cc1cccc(C)c1-c1nc(O)nc(-c2ccc(OCC(C)(C)C)cc2)n1 [Example 2-58]
10,95 nM,Cc1cccc(C)c1-c1nc(O)nc(-c2ccc(OCc3ccccc3)nc2)n1 [Example 2-59]
11,121 nM,Oc1nc(-c2ccc(C(F)(F)F)cc2)nc(-c2c(Cl)cccc2OCc2cccnc2)n1 [Example 2-60]
12,92 nM,Oc1nc(-c2ccc(C(F)(F)F)cc2)nc(-c2c(Cl)cccc2OCc2ccncc2)n1 [Example 2-61]
13,9.3 nM,CC(C)(C)COc1ccc(-c2nc(O)nc(-c3c(Cl)cccc3OCc3ccccn3)n2)cc1 [Example 2-62]
14,259 nM,C[C@@H](Oc1cccc(Cl)c1-c1nc(O)nc(-c2ccc(OCC(C)(C)C)cc2)n1)c1ccccn1 [Example 2-63]
15,12 nM,C[C@H](Oc1cccc(Cl)c1-c1nc(O)nc(-c2ccc(OCC(C)(C)C)cc2)n1)c1ccccn1 [Example 2-64]
16,151 nM,C[C@H](Oc1cccc(Cl)c1-c1nc(O)nc(-c2ccc(OCC(C)(C)C)cc2)n1)c1ccccc1 [Example 2-65]
17,16 nM,CC(C)COc1ccc(-c2nc(O)nc(-c3c(Cl)cccc3OCc3ccccn3)n2)cc1 [Example 2-66]
18,27 nM,CC(C)COc1ccc(-c2nc(O)nc(-c3c(Cl)cccc3O[C@@H](C)c3ccccn3)n2)cc1 [Example 2-67]
19,672 nM,CC(C)(C)COc1ccc(-c2nc(O)nc(-c3c(Cl)cccc3OCc3ncccn3)n2)cc1 [Example 2-68]
20,84 nM,CCCCCOc1ccc(-c2nc(O)nc(-c3c(C)cccc3C)n2)cc1 [Example 2-69]
21,158 nM,CCCCOc1ccc(-c2nc(O)nc(-c3c(C)cccc3C)n2)cc1 [Example 2-70]
22,172 nM,Cc1cccc(C)c1-c1nc(O)nc(-c2ccc(OCCC(C)C)cc2)n1 [Example 2-71]
23,283 nM,Cc1cccnc1COc1cccc(Cl)c1-c1nc(O)nc(-c2ccc(OCC(C)C)cc2)n1 [Example 2-72]
24,402 nM,CCC(CC)Oc1ccc(-c2nc(O)nc(-c3c(C)cccc3C)n2)cc1 [Example 2-73]

row,IC50,SMILES
1,424 nM,Cc1cccc(C)c1-c1nc(O)nc(-c2ccc(OCC3CC3)cc2)n1 [Example 2-74]
2,3.7 nM,Oc1nc(-c2ccc(OCC3CCC3)cc2)nc(-c2c(Cl)cccc2OCc2ccccn2)n1 [Example 2-75]
3,5.8 nM,Oc1nc(-c2ccc(C#CC3CCCCC3)cc2)nc(-c2c(Cl)cccc2OCc2ccccn2)n1 [Example 2-76]
4,3.7 nM,Oc1nc(-c2ccc(OCC3CCCCC3)cc2)nc(-c2c(Cl)cccc2OCc2ccccn2)n1 [Example 2-77]
5,1.6 nM,Oc1nc(-c2ccc(C#Cc3ccccc3)cc2)nc(-c2c(Cl)cccc2OCc2ccccn2)n1 [Example 2-80]
6,2.7 nM,Oc1nc(-c2ccc(C#CC3CCCC3)cc2)nc(-c2c(Cl)cccc2OCc2ccccn2)n1 [Example 2-81]
7,1.7 nM,Oc1nc(-c2ccc(C#CC3CC3)cc2)nc(-c2c(Cl)cccc2OCc2ccccn2)n1 [Example 2-82]
8,51 nM,Oc1nc(-c2ccc(C#CC3CCCCC3)cc2)nc(-c2c(Cl)cccc2OCc2ccc(C(F)(F)F)cn2)n1 [Example 2-83]
9,17 nM,CC1(C)CCC(Oc2ccc(-c3nc(O)nc(-c4c(Cl)cccc4OCc4ccccn4)n3)cc2)CC1 [Example 2-84]
10,2.2 nM,C[C@H](Oc1cccc(Cl)c1-c1nc(O)nc(-c2ccc(C#Cc3ccccc3)cc2)n1)c1ccccn1 [Example 2-86]
11,1.8 nM,Cc1cccc(COc2cccc(Cl)c2-c2nc(O)nc(-c3ccc(C#Cc4ccccc4)cc3)n2)n1 [Example 2-87]
12,2 nM,N#Cc1cccc(OCc2ccccn2)c1-c1nc(O)nc(-c2ccc(C#Cc3ccccc3)cc2)n1 [Example 2-88]
13,18 nM,Oc1nc(-c2ccc(OCC3CC3)cc2)nc(-c2c(Cl)cccc2OCc2ccccn2)n1 [Example 2-89]
14,2100 nM,CN(C)C(=O)COc1cccc(Cl)c1-c1nc(O)nc(-c2ccc(OCC3CC3)cc2)n1 [Example 2-90]
15,1.6 nM,Oc1nc(-c2ccc(C#CC3CCCC3)cc2)nc(-c2c(Cl)cccc2OCc2ccccn2)n1 [Example 2-91]
16,4.4 nM,Oc1nc(-c2ccc(C#CC3CCCCC3)cc2)nc(-c2c(Cl)cccc2OCc2ccccn2)n1 [Example 2-92]
17,38 nM,Oc1nc(-c2ccc(OCC3CC3)nc2)nc(-c2c(Cl)cccc2OCc2ccccc2)n1 [Example 2-93]
18,4.1 nM,CC(C)(C)C#Cc1ccc(-c2nc(O)nc(-c3c(Cl)cccc3OCc3ccccn3)n2)cc1 [Example 2-94]
19,5 nM,Oc1nc(-c2ccc(C#Cc3ccccc3)cc2)nc(-c2c(OCc3ccccn3)cccc2C(F)(F)F)n1 [Example 2-95]
20,21 nM,Oc1nc(-c2ccc(C#Cc3ccccn3)cc2)nc(-c2c(Cl)cccc2OCc2ccccc2)n1 [Example 2-96]
21,8.9 nM,Oc1nc(-c2ccc(C#Cc3ccccn3)cc2)nc(-c2c(Cl)cccc2OCc2ccccn2)n1 [Example 2-97]
22,1.7 nM,Cc1cccc(COc2cccc(C(F)(F)F)c2-c2nc(O)nc(-c3ccc(C#Cc4ccccc4)nc3)n2)n1 [Example 2-99]
23,5.6 nM,Cc1ccccc1C#Cc1ccc(-c2nc(O)nc(-c3c(OCc4ccccn4)cccc3C(F)(F)F)n2)cc1 [Example 2-100]
24,6.5 nM,Cc1cccc(C#Cc2ccc(-c3nc(O)nc(-c4c(OCc5ccccn5)cccc4C(F)(F)F)n3)cc2)c1 [Example 2-101]

row,IC50,SMILES
1,5.9 nM,Cc1ccc(C#Cc2ccc(-c3nc(O)nc(-c4c(OCc5ccccn5)cccc4C(F)(F)F)n3)cc2)cc1 [Example 2-102]
2,10 nM,Oc1nc(-c2ccc(C#Cc3ccccc3C(F)(F)F)cc2)nc(-c2c(OCc3ccccn3)cccc2C(F)(F)F)n1 [Example 2-103]
3,18 nM,Oc1nc(-c2ccc(C#Cc3cccc(C(F)(F)F)c3)cc2)nc(-c2c(OCc3ccccn3)cccc2C(F)(F)F)n1 [Example 2-104]
4,18 nM,Oc1nc(-c2ccc(C#Cc3ccc(C(F)(F)F)cc3)cc2)nc(-c2c(OCc3ccccn3)cccc2C(F)(F)F)n1 [Example 2-105]
5,5 nM,Oc1nc(-c2ccc(C#Cc3ccccc3)c(F)c2)nc(-c2c(OCc3ccccn3)cccc2C(F)(F)F)n1 [Example 2-106]
6,3.8 nM,Cc1cccc(COc2cccc(C(F)(F)F)c2-c2nc(O)nc(-c3ccc(C#Cc4ccccc4F)cc3)n2)n1 [Example 2-107]
7,6.4 nM,Cc1cccc(COc2cccc(C(F)(F)F)c2-c2nc(O)nc(-c3ccc(C#Cc4ccccc4Cl)cc3)n2)n1 [Example 2-108]
8,2.8 nM,COc1ccccc1C#Cc1ccc(-c2nc(O)nc(-c3c(OCc4cccc(C)n4)cccc3C(F)(F)F)n2)cc1 [Example 2-109]
9,7.4 nM,Cc1cc(C)nc(COc2cccc(C(F)(F)F)c2-c2nc(O)nc(-c3ccc(C#Cc4ccccc4)cc3)n2)c1 [Example 2-110]
10,4.4 nM,Oc1nc(-c2ccc(C#Cc3ccccc3)cc2)nc(-c2c(OCc3ncccc3F)cccc2C(F)(F)F)n1 [Example 2-111]
11,5.9 nM,Oc1nc(-c2ccc(C#Cc3ccccc3)cc2)nc(-c2c(OCc3ccc(Cl)cn3)cccc2C(F)(F)F)n1 [Example 2-112]
12,5.1 nM,Cc1ccnc(COc2cccc(C(F)(F)F)c2-c2nc(O)nc(-c3ccc(C#Cc4ccccc4)cc3)n2)c1 [Example 2-113]
13,4.9 nM,Cc1ccc(COc2cccc(C(F)(F)F)c2-c2nc(O)nc(-c3ccc(C#Cc4ccccc4)cc3)n2)nc1 [Example 2-114]
14,3 nM,Oc1nc(-c2ccc(C#Cc3ccccc3)cc2)nc(-c2c(OCc3ccc(F)cn3)cccc2C(F)(F)F)n1 [Example 2-115]
15,5.5 nM,Cc1cccc(COc2cccc(C(F)(F)F)c2-c2nc(O)nc(-c3ccc(C#Cc4cccc(F)c4)cc3)n2)n1 [Example 2-116]
16,4.7 nM,Cc1cccc(COc2cccc(C(F)(F)F)c2-c2nc(O)nc(-c3ccc(C#Cc4ccc(F)cc4)cc3)n2)n1 [Example 2-117]
17,7.1 nM,COc1cccc(COc2cccc(C(F)(F)F)c2-c2nc(O)nc(-c3ccc(C#Cc4ccccc4)cc3)n2)n1 [Example 2-118]
18,1.8 nM,Oc1cccc(COc2cccc(C(F)(F)F)c2-c2nc(O)nc(-c3ccc(C#Cc4ccccc4)cc3)n2)n1 [Example 2-119]
19,4.1 nM,COc1ccnc(COc2cccc(C(F)(F)F)c2-c2nc(O)nc(-c3ccc(C#Cc4ccccc4)cc3)n2)c1 [Example 2-120]
20,14 nM,Oc1nc(-c2ccc(C#Cc3ccccc3)cc2)nc(-c2c(OCc3cccc(C(F)(F)F)n3)cccc2C(F)(F)F)n1 [Example 2-121]
21,15 nM,Oc1nc(-c2ccc(C#Cc3ccccc3)cc2)nc(-c2c(OCc3cc(C(F)(F)F)ccn3)cccc2C(F)(F)F)n1 [Example 2-122]
22,12 nM,Cc1cccc(COc2cccc(C(F)(F)F)c2-c2nc(O)nc(-c3ccc(C#Cc4cccc(Cl)c4)cc3)n2)n1 [Example 2-123]
